The test concerns the target Biliverdin reductase A (Homo sapiens) (UniProt P53004). The test can be described thus: BLVRA binders by thermal stabilization, biophysical, DSF, SYPRO orange, recombinant protein (AID 516). The following applies: at 10 µM, buffer 10 mM HEPES, pH 7.5, NaCl 150 mM, stronger effect = higher value.

For one compound, Tm shift results are on record in PubChem BioAssay AID516.

Chain of Biliverdin reductase A (Homo sapiens) (P53004 whole entry, looked up): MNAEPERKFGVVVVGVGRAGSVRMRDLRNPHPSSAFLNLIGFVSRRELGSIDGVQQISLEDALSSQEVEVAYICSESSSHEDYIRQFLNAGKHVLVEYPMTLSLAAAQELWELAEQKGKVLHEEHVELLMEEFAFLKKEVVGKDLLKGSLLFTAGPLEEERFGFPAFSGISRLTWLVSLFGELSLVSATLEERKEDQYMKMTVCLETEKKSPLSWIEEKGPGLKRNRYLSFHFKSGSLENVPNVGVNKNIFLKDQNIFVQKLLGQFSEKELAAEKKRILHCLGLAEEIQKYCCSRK

With `C=CC1=C(C)/C(=C/c2[nH]c(Cc3[nH]c(/C=C4\NC(=O)C(C)=C4C=C)c(C)c3CCC(=O)O)c(CCC(=O)O)c2C)NC1=O`, the Tm shift was 3.8 Celsius.
